How the values were obtained:
Type in all cases: cell-based, mice
[1] = test system: cultured hippocampal neurons; assay: Whole-cell patch clamp recordings of cultured hippocampal neurons
Description: Whole-cell patch clamp recordings were made at room temperature from cultured hippocampal neurons plated on coverslips secured with a platinum ring in a recording chamber (Open access chamber-1, Science Products GmbH, Hofheim, Germany) mounted on a fixed-stage upright microscope (BX51WI, Olympus, Hamburg, Germany). Differential interference contrast optics, infrared illumination and a CCD camera (PCO, Visitron Systems, Puchheim, Germany) connected to a contrast enhancement unit (Argus, Hamamatsu, Herrsching am Ammersee, Germany) were used to view neurons on a video monitor. Recordings were made with a Multiclamp 700A amplifier, digitized through a Digidata 1322A A/D converter and acquired using pClamp software (Molecular Devices, CA, USA). All membrane potentials have been corrected for the calculated junction potential of −11 mV (JPCalc program by Dr. Peter H. Barry). mEPSCs and whole-cell AMPA (10 μM, 6 ml/min, Biotrend) responses were recorded as known in the art except for the solutions and that a holding potential of −71 mV was used and both TTX (1 μM, Biotrend, Cologne, Germany) and gabazine (5 μM, Biotrend) were included in the ACSF. TTX was applied before gabazine to prevent the induction of action potential bursting. Access (range: 7-18 MU) and membrane resistance (see Table 1) were monitored before and after mEPSC recordings and data was rejected if changes greater than 20% occurred.
Patch electrodes (3-4 MU) were made from borosilicate glass (1.5 mm, WPI, Sarasota, Fla., USA) and filled with intracellular solution (containing in mM: KCH3SO4, 145; NaCl, 8; HEPES, 10; K2-phosphocreatine, 10; Mgt-ATP, 4; Na3-GTP, 0.3; pH 7.35 with KOH). The extracellular solution was an artificial cerebrospinal fluid (ACSF, in mM: NaCl, 125; KCl, 3.5; MgCl2, 1.3; NaH2PO4, 1.2; CaCl2, 2.4; glucose, 25; NaHCO3, 26; gassed with 95% O2 and 5% CO2).

hippocampal cultures = assay: MEA recordings of spontaneous network activity; details: infected cultures versus rAAV-shSCR or rAAV-emptymC
Description: MEA recordings were done as known in the art. From DIV7 to DIV13, recordings of spontaneous network activity were acquired for 5 min once per day.

hippocampal neurons = hippocampal neurons infected with rAAV
Description: E: Analysis of apoptosis of hippocampal cultures uninfected or infected with the indicated rAAVs. Values are expressed as percentage of the total number of cells analyzed.

VEGFC = assay: qRT-PCR analysis of VEGFC expression in hippocampal neurons; details: hippocampal neurons infected with rAAV
Description: Total RNA was isolated at DIV10 to DIV13 from hippocampal primary neuron cultures or isolated brain tissues with Rneasy Mini Kit (Qiagen, Hilden, Germany) including an optional Dnase I treatment at room temperature for 15 min according to manufacturer's instructions (Qiagen). 1.2 μg of extracted RNA was reverse transcribed into first strand cDNA using High Capacity cDNA Reverse Transcription kit (Applied Biosystems, Foster City, Calif.).
Quantitative reverse transcriptase PCR (qRT-PCR) was done on an ABI7300 thermal cycler using Universal qRT-PCR master mix with TaqMan Gene Expression Assays for the indicated genes (Applied Biosystems). The following TaqMan Gene Expression Assays were used in this study: Gusb (Mm00446953_m1), cFos (Mm00487425_m1), VEGFD (Mm00438965_m1), VEGFC (Mm01202432_m1), VEGF (Mm01281449_m1), VEGFR3 (Mm01292618_m1), beta-actin (Mm00607939_s1), beta-2 microglobulin (Mm00437762_m1), CBP (Mm01342435_m1), p38 MAPK alpha (Mm00442497_m1), p38 MAPK beta (Mm00440955_m1). Expression of target genes was normalized against the expression of Gusb as endogenous control gene. Data were derived from at least 5 independent experiments.

shVEGFD: shRNA targeting mouse VEGFD mRNA (GGGCTTCAGGAGCGAACAT; SEQ ID NO: 1), expressed from rAAV vector or plasmid with U6 promoter
AMPA response amplitudes ([1]; bath applied AMPA 10 μM): smaller
AP induc thresh (current injection required to induce an action potential) ([1]; infected neurons): 162 ± 14 pA
AP thresh (membrane potential at which action potentials initiate) ([1]; infected neurons): −46.5 ± 1.1 mV
Cm (membrane capacitance) ([1]; infected neurons): 68.3 ± 3.3 pF
Rm (membrane resistance) ([1]; infected neurons): 316 ± 19 MΩ
Vrest (resting membrane potential) ([1]; infected neurons): −82.9 ± 1.9 mV
mEPSC τ decay ([1]; infected neurons): 4.14 ± 0.15 ms
mEPSC τ rise ([1]; infected neurons): 2.91 ± 0.10 ms
AP induc thresh (current injection required to induce an action potential) ([1]; transfected neurons): 149 ± 14 pA
AP thresh (membrane potential at which action potentials initiate) ([1]; transfected neurons): −45.6 ± 1.6 mV
Cm (membrane capacitance) ([1]; transfected neurons): 59.7 ± 3.8 pF
Rm (membrane resistance) ([1]; transfected neurons): 352 ± 29 MΩ
Vrest (resting membrane potential) ([1]; transfected neurons): −79.7 ± 2.0 mV
mEPSC τ decay ([1]; transfected neurons): 3.82 ± 0.26 ms
mEPSC τ rise ([1]; transfected neurons): 2.82 ± 0.23 ms
mEPSC inter-event intervals (IEIs, 1/frequency) ([1]; versus respective shSCR expressing controls): longer mEPSC inter-event intervals
spike frequencies (hippocampal cultures): reduced
cell death (hippocampal neurons): no increase in cell death
Expression of VEGFC (VEGFC): not affected
